In PubChem BioAssay (NCI):
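At the GI50, growth is halved. The concentration for full growth arrest is given as TGI.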

Columns and labels:
Assay in all cases: NCI anticancer screen, dose series, 384-well format
[1] = tested on: CAKI-1 renal
[2] = tested on: EKVX NSCLC
[3] = tested on: SF-295 CNS
[4] = tested on: HT29 colon
[5] = tested on: BT-549 breast
[6] = tested on: OVCAR-4 ovarian
[7] = tested on: KM12 colon
[8] = tested on: SF-539 CNS
[9] = tested on: IGROV1 ovarian
[10] = tested on: RXF 393 renal
[11] = tested on: OVCAR-5 ovarian
[12] = tested on: SF-268 CNS
[13] = tested on: HOP-92 NSCLC
[14] = tested on: T-47D breast
[15] = tested on: M14 melanoma
[16] = tested on: NCI-H322M lung
[17] = tested on: SNB-19 CNS
[18] = tested on: SK-OV-3 ovarian
[19] = tested on: A498 renal
[20] = tested on: MDA-MB-435 melanoma
[21] = tested on: COLO 205 colon
[22] = tested on: SN12C renal
[23] = tested on: HCT-116 colon
[24] = tested on: SNB-75 CNS
[25] = tested on: LOX IMVI melanoma
[26] = tested on: RPMI-8226 leukemia
[27] = tested on: NCI-H23 lung

SMILES: COc1cccc2[nH]c3c4c(c5c(c3c12)C(=O)N(CN1CCN(C)CC1)C5=O)CCC4
- GI50 [1]: 10.9 µM
- TGI [1]: 23.2 µM
- GI50 [2]: 15.4 µM
- TGI [2]: 29.1 µM
- GI50 [3]: 13.9 µM
- TGI [3]: 27.2 µM
- GI50 [4]: 13.2 µM
- TGI [4]: 27.1 µM
- GI50 [5]: 15.8 µM
- TGI [5]: 29.6 µM
- GI50 [6]: 7.56 µM
- TGI [6]: 19.5 µM
- GI50 [7]: 15.8 µM
- TGI [7]: 34.2 µM
- GI50 [8]: 9.75 µM
- TGI [8]: 21.8 µM
- GI50 [9]: 12.5 µM
- TGI [9]: 29.6 µM
- GI50 [10]: 14.2 µM
- TGI [10]: 27.3 µM
- GI50 [11]: 20.7 µM
- TGI [11]: 48.7 µM
- GI50 [12]: 15.5 µM
- TGI [12]: 29.7 µM
- GI50 [13]: 17.3 µM
- TGI [13]: 31.3 µM
- GI50 [14]: 12.3 µM
- TGI [14]: 32 µM
- GI50 [15]: 14.3 µM
- TGI [15]: 28.7 µM
- GI50 [16]: 14.4 µM
- TGI [16]: 27.8 µM
- GI50 [17]: 12.3 µM
- TGI [17]: 24.8 µM
- GI50 [18]: 11.2 µM
- TGI [18]: 23.6 µM
- GI50 [19]: 9.22 µM
- TGI [19]: 21.5 µM
- GI50 [20]: 13.7 µM
- TGI [20]: 29.1 µM
- GI50 [21]: 15.4 µM
- TGI [21]: 48.5 µM
- GI50 [22]: 12.5 µM
- TGI [22]: 40.6 µM
- GI50 [23]: 11.6 µM
- TGI [23]: 24.4 µM
- GI50 [24]: 13 µM
- TGI [24]: 25.9 µM
- GI50 [25]: 13.7 µM
- TGI [25]: 26.9 µM
- GI50 [26]: 13.3 µM
- TGI [26]: 26.2 µM
- GI50 [27]: 14 µM
- TGI [27]: 27.3 µM
